Converted amounts (≈) assume the structure as drawn. Where two headings read alike, the source gives them in different places. Marks after values point to notes of the source that are not given here.
How the values were obtained:
B. subtilis DSM10 = assay: MIC determination (microdilution, M07-A9); format: cell-based; conditions: Bacillus subtilis
Protocol: (§1) MIC values were determined according to the ninth edition of the Approved Standard M07-A9. The test was carried out for six different bacterial strains (E. coli DSM 1116 (Gram-negative), E. coli BW25113 (Gram-negative), B. subtilis DSM 10 (Gram-positive), M. luteus DSM 1790 (Gram-positive), M. phlei DSM 750 (Gram-positive), S. typhimurium TA 100 (Gram-negative). First, 20 µl of glycerol stock of each strain was inoculated in 20 ml LB (Lennox) followed by incubation overnight at 37 °C, 200 r.p.m. The test inoculum was adjusted by the 0.5 McFarland Standard. Within 15 min of preparation, the adjusted inoculum suspension was diluted in MHBII so that each well contained approximately 5 × 10^5 c.f.u. ml^−1 in a final volume of 100 µl. Then, 95 µl of the inoculum was applied per well and 5 µl of the (diluted) albicidins was added. For dilutions, the dry powders were dissolved in dimethylsulfoxide (DMSO) with a concentration of 2.56 mg ml^−1, and the obtained stock solutions were further diluted in DMSO. Next, 5 µl of each antibiotic dilution was applied to the microdilution tray to reach final concentrations of 8 to 0.016 µg ml^−1. One row of each well plate served as a growth control without antibiotic and another row of the microdilution tray served as a sterility control (only MHBII media). The antimicrobial effect of the solvent was tested by adding 5 µl DMSO to several wells. Purity check and cell titre control were performed according to International Standard M07-A9 on Mueller–Hinton II Agar. Both microdilution trays and agar plates were incubated at 37 °C for 20 h.

E. coli BW25113 = assay: MIC determination (microdilution, M07-A9); format: cell-based; conditions: E. coli BW25113
Protocol: as §1

E. coli DSM116 = assay: MIC determination (microdilution, M07-A9); format: cell-based
Protocol: as §1

M. luteus DSM1790 = assay: MIC determination (microdilution, M07-A9); format: cell-based
Protocol: as §1

M. phlei DSM750 = assay: MIC determination (microdilution, M07-A9); format: cell-based; conditions: Mycolicibacterium phlei
Protocol: as §1

S. typhimurium TA100 = assay: MIC determination (microdilution, M07-A9); format: cell-based
Protocol: as §1

[1] = system: selected Gram-negative and Gram-positive microorganisms; assay: MIC activity groups over all tested strains; format: cell-based; design: key: a: most potent; b: intermediate; least active; conditions: MIC panel
Protocol: as §1

WT E. coli gyrase = target: T1, WT E. coli gyrase (Escherichia coli, UniProt P0AES4+P0AES6); assay: biochemical; format: biochemical; conditions: WT gyrase 20 nM; in words
T1 construct: alternative cryo-EM approach involving full-length E. coli gyrase; 10-His (cleaved yes); Twin-Strep (cleaved yes); made in house
T1 sequence (P0AES4 whole entry, one chain of several): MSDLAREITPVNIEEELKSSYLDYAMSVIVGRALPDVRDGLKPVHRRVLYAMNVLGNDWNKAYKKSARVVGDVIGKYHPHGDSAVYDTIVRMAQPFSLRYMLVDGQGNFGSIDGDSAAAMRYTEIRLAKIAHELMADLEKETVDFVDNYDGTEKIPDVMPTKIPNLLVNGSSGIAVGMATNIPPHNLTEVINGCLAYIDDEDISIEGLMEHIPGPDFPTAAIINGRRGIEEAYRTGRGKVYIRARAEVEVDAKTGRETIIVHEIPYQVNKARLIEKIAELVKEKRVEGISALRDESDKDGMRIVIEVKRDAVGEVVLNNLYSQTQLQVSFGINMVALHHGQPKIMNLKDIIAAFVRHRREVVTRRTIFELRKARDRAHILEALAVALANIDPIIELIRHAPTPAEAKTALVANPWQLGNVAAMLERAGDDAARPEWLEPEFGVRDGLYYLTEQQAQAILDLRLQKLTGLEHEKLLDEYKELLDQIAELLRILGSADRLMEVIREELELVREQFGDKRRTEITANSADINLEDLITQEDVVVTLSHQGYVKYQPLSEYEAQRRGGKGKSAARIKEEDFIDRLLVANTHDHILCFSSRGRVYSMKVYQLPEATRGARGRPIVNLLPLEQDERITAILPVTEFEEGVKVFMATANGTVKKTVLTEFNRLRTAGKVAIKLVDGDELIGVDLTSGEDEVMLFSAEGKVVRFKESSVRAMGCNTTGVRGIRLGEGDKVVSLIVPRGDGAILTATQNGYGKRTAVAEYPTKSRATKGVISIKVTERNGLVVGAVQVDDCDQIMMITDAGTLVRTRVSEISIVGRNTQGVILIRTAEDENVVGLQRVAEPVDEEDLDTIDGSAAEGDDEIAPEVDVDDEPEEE
Protocol: For DNA gyrase supercoiling assays to characterize gyrase mutants, 15 µl reactions were set up containing 250 ng of relaxed DNA, E. coli gyrase supercoiling buffer (35 mM Tris–Cl pH 7.5, 24 mM KCl, 4 mM MgCl2, 2 mM DTT, 1.8 mM spermidine, 1 mM ATP, 6.0% (w/v) glycerol, and 0.1 mg ml^−1 BSA), gyrase subunits and inhibitors. Concentrations of enzyme and inhibitor are stated in the figure legends. Inhibitors were diluted in the following way to reduce the chance of precipitation: stock compound in 100% DMSO was diluted to 5 mM in 100% DMSO. This compound solution was diluted to 1 mM by stepwise addition of 1 µl of 50% DMSO with thorough mixing via pipetting after each addition. All subsequent dilutions up to 100 µM were performed in the same way using H2O. After this point, compounds were stable and could be diluted in the normal way. Reactions were incubated at 37 °C for 30 min before stopping with 15 µl chloroform:isoamyl alcohol (24:1 v/v) and 15 µl of STEB (40% (w/v) sucrose, 100 mM Tris–Cl pH 8, 10 mM EDTA, 0.5 mg ml^−1 bromophenol blue).
Cleavage assays were set up in the same way as supercoiling assays with some modifications. The concentration of enzyme was increased 4-fold relative to the supercoiling assay and reactions were incubated for 1 h before addition of 0.2% SDS and proteinase K (0.2 mg ml^−1) and further incubation at 37 °C for 30 min to trap cleavage complexes. Reactions were stopped in the same way as supercoiling assays.
Results were visualized by agarose gel electrophoresis: 1% agarose Tris-acetate-EDTA (TAE) gels were run without ethidium bromide (supercoiling) or with 10 µg ml^−1 ethidium bromide (cleavage) at 8 V cm^−1.
DNA cleavage gels were analysed using densitometry (ImageJ). Experiments were carried out in triplicate and expressed as mean ± s.d. Curves were fitted using OriginPro 2021 (Origin Lab) according to a modified Hill equation:1 y=cI+(cF−cI)[…]/(k^n+x^n) where y is the percentage of cleaved DNA, cI is the initial cleavage, cF is the final cleavage, k is the CC50 (the concentration of inhibitor that results in cleavage of 50% of DNA), n is a slope factor and x is the inhibitor concentration.

E. coli gyrase = target: T2, E. coli gyrase (Escherichia coli, UniProt P0AES4+P0AES6); assay: Gyrase cleavage of linear DNA fragments (Mu217 and others); format: biochemical; conditions: in words
T2 construct: alternative cryo-EM approach involving full-length E. coli gyrase; 10-His (cleaved yes); Twin-Strep (cleaved yes); made in house
T2 sequence (P0AES4 whole entry, the tested form may be a part, one chain of several): as the sequence (P0AES4 whole entry, one chain of several) above
Protocol: Mu217 DNA (25 nM) was incubated with 0.4 µM gyrase and indicated concentrations (1 or 10 µM) of diazirine-labelled albicidin (photo-Albi, φAlbi) in a volume of 20 µl (~70 ng DNA) at 37 °C for 30 min in gyrase cleavage buffer (see section 'Topoisomerase assays'). For CFX competition experiments, 30 µM CFX was added first, followed by the albicidin. Reactions were either irradiated with ultraviolet 365 nm (benchtop transilluminator) with cooling (ice) for 30 min or left on ice for 30 min (‘dark’). Then, 0.2% SDS and 0.2 mg ml^−1 proteinase K were added to both samples, which were incubated for another 30 min. Reactions were mixed with loading dye (STEB) and chloroform:isoamyl alcohol (24:1 v/v) before vortexing and centrifugation. The aqueous phase was loaded on 4–20% TBE (Tris–borate–EDTA) polyacrylamide gel (Thermo) and ran for 1 h at 150 V. DNA was visualized with SYBR Gold (Thermo) staining.
Extended Data Fig. 1 Length dependency of albicidin-mediated DNA cleavage. Position of cleaved DNA indicated by arrows and red dots. ATP and ADPNP were added as indicated, (----) stands for no nucleotide added. 20 nM gyrase, 1 µM albicidin and 25 nM DNA was used in each reaction.
Extended Data Fig. 5 Photocrosslinking of diazirine-labelled albicidin (photo-Albi) to the DNA. a. Structures of N-terminal photo-Albi and control compound. b. DNA cleavage assay with Mu217 fragment and indicated concentrations of compounds. The labelled DNA band appearing upon irradiation of a photo-compound when bound to the complex is marked by a yellow star. c. Ciprofloxacin competition experiment. Pre-incubation with excess CFX prevents albicidin binding and crosslinking. Details of the experiment are available in Methods section.

[2] = first value in cell (biological replicate)
[3] = second value in cell (biological replicate)
[4] = Escherichia coli, first value in cell (biological replicate), read-out: MIC
[5] = E. coli DSM116, second value in cell (biological replicate)
[6] = Escherichia coli, E. coli DSM116, first value in cell (biological replicate), read-out: MIC
[7] = Micrococcus luteus, first value in cell (biological replicate), read-out: MIC
[8] = Salmonella enterica, first value in cell (biological replicate), read-out: MIC

SMILES	MIC (B. subtilis DSM10; [2]) [µg/mL]	MIC (B. subtilis DSM10; [3]) [µg/mL]	MIC (E. coli BW25113; [4]) [µg/mL]	MIC (E. coli DSM116; [5])	MIC (E. coli DSM116; [6]) [µg/mL]	MIC (M. luteus DSM1790; [7]) [µg/mL]	MIC (M. luteus DSM1790; [3])	MIC (M. phlei DSM750; [2]) [µg/mL]	MIC (M. phlei DSM750; [3]) [µg/mL]	MIC (S. typhimurium TA100; [8]) [µg/mL]	activity group (superscript letter) [1]	activity in a DNA cleavage assay relative to albicidin (WT E. coli gyrase)	MIC (E. coli BW25113; [3])	MIC (E. coli DSM116; Escherichia coli, DSM116, E. coli DSM116, first value in cell (biological replicate), read-out: MIC) [µg/mL]	MIC (E. coli DSM116; Escherichia coli, DSM116, E. coli DSM116, second value in cell (biological replicate), read-out: MIC) [µg/mL]	MIC (S. typhimurium TA100; [3])	activity against gyrase (E. coli gyrase)
COc1ccccc1NC(=O)c1ccc(NC(=O)[C@H](Cc2c[nH]nn2)NC(=O)c2ccc(NC(=O)c3ccc(C#N)cc3)cn2)cn1 [AE-1]	> 8	> 8	> 8	>8.0 >8.0 µg ml^−1	> 8	> 8	>8.0 >8.0 µg ml^−1	> 8	> 8	> 8	AE-1^c	–	–	–	–	–	–
COc1ccccc1NC(=O)c1ccc(NC(=O)[C@H](Cc2c[nH]nn2)NC(=O)c2ccc(NC(=O)c3ccc(C#N)cc3)cc2)cn1 [AE-2]	> 8	> 8	> 8	>8.0 >8.0 µg ml^−1	> 8	> 8	>8.0 >8.0 µg ml^−1	> 8	> 8	> 8	AE-2^c	–	–	–	–	–	–
COc1ccccc1NC(=O)c1ccc(NC(=O)[C@H](Cc2c[nH]nn2)NC(=O)c2ccc(NC(=O)/C(C)=C/c3ccc(O)cc3)cc2)cn1 [AE-3]	> 8	> 8	> 8	>8.0 >8.0 µg ml^−1	> 8	> 8	>8.0 >8.0 µg ml^−1	> 8	> 8	> 8	AE-3^c	–	–	–	–	–	–
CC(C)Oc1ccccc1NC(=O)c1ccc(NC(=O)[C@H](Cc2c[nH]nn2)NC(=O)c2ccc(NC(=O)c3ccc(C#N)cc3)cn2)cn1 [AE-4]	> 8	> 8	> 8	>8.0 >8.0 µg ml^−1	> 8	> 8	>8.0 >8.0 µg ml^−1	> 8	> 8	> 8	AE-4^c	–	–	–	–	–	–
COc1c(NC(=O)c2ccc(NC(=O)[C@H](Cc3c[nH]nn3)NC(=O)c3ccc(NC(=O)c4ccc(C#N)cc4)cc3)cn2)ccc(F)c1F [AE-5]	> 8	> 8	> 8	>8.0 >8.0 µg ml^−1	> 8	> 8	>8.0 >8.0 µg ml^−1	> 8	> 8	> 8	AE-5^c	–	–	–	–	–	–
COc1c(NC(=O)c2ccc(NC(=O)c3ccc(NC(=O)[C@H](Cc4c[nH]nn4)NC(=O)c4ccc(C#Cc5ccc(C#N)cc5)cc4)cn3)c(OC)c2O)ccc(C(=O)O)c1O [Alkyne–Albi]	0.063 (≈ 0.0754 µM)	0.125 (≈ 0.15 µM)	< 0.016	<0.016 <0.016 µg ml^−1	< 0.016	< 0.016	<0.016 <0.016 µg ml^−1	0.25 (≈ 0.299 µM)	0.5 (≈ 0.598 µM)	< 0.016	Alkyne–Albi^a	as active as albicidin	–	–	–	–	–
COc1c(NC(=O)c2ccc(NC(=O)c3ccc(NC(=O)[C@H](Cc4c[nH]nn4)NC(=O)c4ccc(NC(=O)/C(C)=C/c5ccc(O)cc5)cc4)cn3)c(OC)c2O)ccc(C(=O)O)c1O [Azahis–Albi]	0.031 (≈ 0.035 µM)	0.063 (≈ 0.0711 µM)	< 0.016	–	–	0.031 (≈ 0.035 µM)	–	0.125 (≈ 0.141 µM)	0.5 (≈ 0.564 µM)	< 0.016	–	–	<0.016 <0.016 µg ml^−1	< 0.016	< 0.016	<0.016 <0.016 µg ml^−1	–
C#CC[C@H](NC(=O)c1ccc(NC(=O)c2ccc(C3(C(F)(F)F)N=N3)cc2)cc1)C(=O)Nc1ccc(C(=O)Nc2ccc(C(=O)Nc3ccc(C(=O)O)c(O)c3OC)c(O)c2OC)nc1 [photo-Albi]	–	–	–	–	–	–	–	–	–	–	–	–	–	–	–	–	active against gyrase

From paper PMC9886550, “Molecular mechanism of topoisomerase poisoning by the peptide antibiotic albicidin” (Nature Catalysis, 2023)
